From patent US11149031B2, “Substituted N-(3-fluoropropyl)-pyrrolidine compounds, processes for their preparation and therapeutic uses thereof” (SANOFI, priority 2016, dated 2021)
Read-outs that look alike come from different tables or passages of the source.

Tests used:
[1] = target: His6-ERα298-554 WT (ERα ligand-binding domain) (Homo sapiens (Human), UniProt P03372); experiment: Test A: biochemical antagonist activity, LanthaScreen TR-FRET ERα coactivator assay, WT; conditions: read-out: Antagonism WT IC50
Sequence of His6-ERα298-554 WT (ERα ligand-binding domain) (P03372 298-554): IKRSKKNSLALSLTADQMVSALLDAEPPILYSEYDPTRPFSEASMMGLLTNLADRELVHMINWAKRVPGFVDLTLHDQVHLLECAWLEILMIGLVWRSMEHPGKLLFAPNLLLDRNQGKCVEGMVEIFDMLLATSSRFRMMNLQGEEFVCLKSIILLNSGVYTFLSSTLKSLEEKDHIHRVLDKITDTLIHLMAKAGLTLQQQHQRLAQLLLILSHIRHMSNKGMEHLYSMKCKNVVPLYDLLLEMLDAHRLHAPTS
Procedure, shortened: (§1)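 His6-ERα LBD (aa 298–554), 0.5 nM, with Tb-anti-His6 antibody, 250 nM PGC1a peptide and 3 nM (or 10 nM) estradiol in pH 7.4 potassium phosphate/DTT buffer; incubated with compound overnight at room temperature. IC50 from 4-parameter logistic fit of TR-FRET 520:495 nm ratio.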

[2] = target: His6-ERα298-554 D538G mutant (ERα ligand-binding domain) (Homo sapiens (Human), UniProt P03372, D538G); experiment: Test A: biochemical antagonist activity, LanthaScreen TR-FRET ERα coactivator assay, D538G mutant; conditions: read-out: Antagonism D538G IC50
Sequence of His6-ERα298-554 D538G mutant (ERα ligand-binding domain) (P03372 298-554 D538G): as the sequence (P03372 298-554) above, with D241G counted along it
Procedure, shortened: as §1

[3] = target: His6-ERα298-554 Y537S mutant (ERα ligand-binding domain) (Homo sapiens (Human), UniProt P03372, Y537S); experiment: Test A: biochemical antagonist activity, LanthaScreen TR-FRET ERα coactivator assay, Y537S mutant; conditions: read-out: Antagonism Y537S IC50
Sequence of His6-ERα298-554 Y537S mutant (ERα ligand-binding domain) (P03372 298-554 Y537S): as the sequence (P03372 298-554) above, with Y240S counted along it
Procedure, shortened: as §1

[4] = tested on: MCF7 cells (breast tumor cells) WT; experiment: Test B: cell proliferation/viability assay (CellTiter-Glo) on MCF7 WT; format: cell-based; conditions: 7 days of compound exposure
Procedure, shortened: (§2)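 CellTiter-Glo luminescence after 7-day exposure; % viability = background-corrected RLU of sample relative to untreated. MCF7 WT or ER Tyr 537 Ser/Asp 538 Gly mutant-dependent lines, phenol red-free MEM, 5% charcoal-stripped FBS; 3-0.000001 μM, 9 points.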

[5] = tested on: MCF7 cells expressing mutant estrogen receptor Tyr 537 Ser; experiment: Test B: cell proliferation/viability assay (CellTiter-Glo) on MCF7 Tyr 537 Ser mutant; format: cell-based; conditions: MCF7 cells expressing ER Tyr 537 Ser mutant, 7 days of compound exposure, read-out: proliferation MCF7 Y537S IC50
Procedure, shortened: as §2

[6] = tested on: MCF7 cells expressing mutant estrogen receptor Asp 538 Gly; experiment: Test B: cell proliferation/viability assay (CellTiter-Glo) on MCF7 Asp 538 Gly mutant; format: cell-based; conditions: MCF7 cells expressing ER Asp 538 Gly mutant, 7 days of compound exposure, read-out: proliferation MCF7 D538G IC50
Procedure, shortened: as §2

ERα in MCF7 cells = ERα in MCF7 cells (Homo sapiens (Human), UniProt P03372); experiment: Test C: estrogen receptor degradation activity, ERα in cell western assay in MCF7 cells; format: cell-based; conditions: for DC50: 4 hours post compound addition, ERα in cell western, read-out: Degradation IC50; for % Degradation at 3 μM: 4 hours, relative to fulvestrant
Sequence of ERα in MCF7 cells (P03372 whole entry): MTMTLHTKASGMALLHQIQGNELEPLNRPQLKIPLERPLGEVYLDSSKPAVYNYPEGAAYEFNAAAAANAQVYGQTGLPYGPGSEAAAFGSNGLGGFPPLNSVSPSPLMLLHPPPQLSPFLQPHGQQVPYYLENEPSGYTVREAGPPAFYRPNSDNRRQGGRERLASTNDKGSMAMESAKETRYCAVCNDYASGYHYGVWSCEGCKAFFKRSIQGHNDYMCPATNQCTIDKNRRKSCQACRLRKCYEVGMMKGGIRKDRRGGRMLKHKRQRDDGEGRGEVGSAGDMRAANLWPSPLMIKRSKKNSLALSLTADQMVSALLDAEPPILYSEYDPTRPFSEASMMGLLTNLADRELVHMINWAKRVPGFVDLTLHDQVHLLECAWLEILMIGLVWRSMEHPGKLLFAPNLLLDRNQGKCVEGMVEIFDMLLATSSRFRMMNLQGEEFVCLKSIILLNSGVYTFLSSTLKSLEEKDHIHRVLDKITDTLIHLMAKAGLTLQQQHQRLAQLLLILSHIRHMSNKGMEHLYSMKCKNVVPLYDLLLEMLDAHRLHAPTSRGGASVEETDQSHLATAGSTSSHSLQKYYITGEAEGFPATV
Procedure, shortened: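 In-cell western, MCF7, 4 h compound exposure, 3–0.000018 μM final, 9 points, 1:5 steps. Formalin/Triton fix, anti-ER rabbit mAb overnight cold, Alexa 488 secondary plus 2 μM Syto-64. Green intensity = ERα, red = DNA; no-primary wells as background.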

[7] = asterisk (*): protocol using 10 nM estradiol

Row | Compound | IC50 [1, 7] [nM] | IC50 [2, 7] [nM] | IC50 [3, 7] [nM] | IC50 ([4]; Homo sapiens, MCF7, 168 h) [nM] | IC50 ([5]; Homo sapiens, MCF7, 168 h) [nM] | IC50 ([6]; Homo sapiens, MCF7, 168 h) [nM] | DC50 (ERα in MCF7 cells) [nM] | % Degradation at 3 μM (ERα in MCF7 cells) [%] | IC50 ([1]; protocol with 3 nM estradiol) [nM] | IC50 ([2]; protocol with 3 nM estradiol) [nM] | IC50 ([3]; protocol with 3 nM estradiol) [nM] | IC50 [4] [nM] | IC50 [5] [nM] | IC50 [6] [nM]
1 | Oc1ccc2c(c1)SCC(c1ccc(F)nc1F)=C2c1ccc(O[C@H]2CCN(CCCF)C2)cc1 [Example 49, 3-(2,6-difluoro-3-pyridyl)-4-[4-[(3S)-1-(3-fluoropropyl)pyrrolidin-3-yl]oxyphenyl]-2H-thiochromen-7-ol] | 37 | 888 | 472 | 0.3 | 3 | 0.9 | 0.2 | 89 | – | – | – | – | – | –
2 | Oc1ccc2c(c1)SCC(c1ccc(Cl)cc1F)=C2c1ccc(O[C@H]2CCN(CCCF)C2)cc1 [Example 18, 3-(4-chloro-2-fluoro-phenyl)-4-[4-[(3S)-1-(3-fluoropropyl)pyrrolidin-3-yl]oxyphenyl]-2H-thiochromen-7-ol] | – | – | – | 0.5 | 7 | 1 | 0.6 | 90 | 9 | 39 | 15 | – | – | –
3 | Cc1ccc(C2=C(c3ccc(O[C@H]4CCN(CCCF)C4)cc3)c3ccc(O)cc3[S+]([O-])C2)c(F)c1 (single isomer, unassigned) [Example 71] | 2740 | > 4000 | > 4000 | – | – | – | 11 | 75 | – | – | – | 12 | 414 | 88
4 | CC(C)(O)c1ccc(C2=C(c3ccc(O[C@H]4CCN(CCCF)C4)cc3)c3ccc(O)cc3SC2)c(F)c1 [Example 33, 3-[2-fluoro-4-(1-hydroxy-1-methyl-ethyl)phenyl]-4-[4-[(3S)-1-(3-fluoropropyl)pyrrolidin-3-yl]oxyphenyl]-2H-thiochromen-7-ol] | 66 | 1690 | 596 | 4 | 22 | 2 | 1 | 84 | – | – | – | – | – | –
5 | CC(C)(C)c1ccc(C2=C(c3ccc(N[C@H]4CCN(CCCF)C4)cc3)c3ccc(O)cc3CCC2)cc1 [Example 89, 6-(4-tert-butylphenyl)-5-[4-[[(3S)-1-(3-fluoropropyl)pyrrolidin-3-yl]amino]phenyl]-8,9-dihydro-7H-benzo[7]annulen-2-ol] | 27 | 726 | 423 | 0.4 | 5 | 1 | 1 | 91 | – | – | – | – | – | –
6 | Oc1ccc2c(c1Cl)OCCC(c1cccc3[nH]ccc13)=C2c1ccc(O[C@H]2CCN(CCCF)C2)cc1 [Example 124, 9-chloro-5-[4-[(3S)-1-(3-fluoropropyl)pyrrolidin-3-yl]oxyphenyl]-4-(1H-indol-4-yl)-2,3-dihydro-1-benzoxepin-8-ol] | – | – | – | 8 | 165 | 33 | 5 | 76 | 22 | 849 | 1240 | – | – | –
7 | Cc1ccc(C2=C(c3ccc(O[C@H]4CCN(CCCF)C4)cc3)c3ccc(O)cc3OCC2)c(F)c1 [Example 96, 4-(2-fluoro-4-methyl-phenyl)-5-[4-[(3S)-1-(3-fluoropropyl)pyrrolidin-3-yl]oxyphenyl]-2,3-dihydro-1-benzoxepin-8-ol] | – | – | – | 2 | 16 | 5 | 0.6 | 91 | 7 | 47 | 19 | – | – | –
8 | COc1ccc(C2=C(c3ccc(O[C@H]4CCN(CCCF)C4)cc3)c3ccc(O)cc3SCC2)c(F)c1 [Example 189, 4-(2-fluoro-4-methoxy-phenyl)-5-[4-[(3S)-1-(3-fluoropropyl)pyrrolidin-3-yl]oxyphenyl]-2,3-dihydro-1-benzothiepin-8-ol] | 2 | 31 | 19 | 0.2 | 4 | 1 | 0.3 | 88 | – | – | – | – | – | –
9 | Oc1ccc2c(c1)CCCC(c1ccc(Cl)cc1Cl)=C2c1ccc(N[C@H]2CCN(CCCF)C2)cc1 [Example 85, 6-(2,4-dichlorophenyl)-5-[4-[[(3S)-1-(3-fluoropropyl)pyrrolidin-3-yl]amino]phenyl]-8,9-dihydro-7H-benzo[7]annulen-2-ol] | 1 | 21 | 15 | 0.4 | 7 | 0.7 | 1 | 86 | – | – | – | – | – | –
10 | CCOc1ccc(C2=C(c3ccc(O[C@H]4CCN(CCCF)C4)cc3)c3ccc(O)cc3SCC2)c(F)c1 [Example 196, 4-(4-ethoxy-2-fluoro-phenyl)-5-[4-[(3S)-1-(3-fluoropropyl)pyrrolidin-3-yl]oxyphenyl]-2,3-dihydro-1-benzothiepin-8-ol] | 3 | 63 | 36 | 0.4 | 6 | 1 | 0.3 | 93 | – | – | – | – | – | –
11 | CCN(CC)c1ccc(C2=C(c3ccc(O[C@H]4CCN(CCCF)C4)cc3)c3ccc(O)cc3SC2)c(F)c1 [Example 74, 3-[4-(diethylamino)-2-fluoro-phenyl]-4-[4-[(3S)-1-(3-fluoropropyl)pyrrolidin-3-yl]oxyphenyl]-2H-thiochromen-7-ol] | 322 | > 4000 | 2380 | 12 | 173 | 16 | 4 | 83 | – | – | – | – | – | –
12 | Oc1ccc2c(c1)CCCC(c1ccc(OC(F)(F)F)cc1F)=C2c1ccc(N[C@H]2CCN(CCCF)C2)cc1 [Example 88, 5-[4-[[(3S)-1-(3-fluoropropyl)pyrrolidin-3-yl]amino]phenyl]-6-[2-fluoro-4-(trifluoromethoxy)phenyl]-8,9-dihydro-7H-benzo[7]annulen-2-ol] | 12 | 293 | 159 | 0.3 | 3 | 0.6 | 0.2 | 88 | – | – | – | – | – | –
13 | Cc1ccc(C2=C(c3ccc(O[C@H]4CCN(CCCF)C4)cc3)c3ccc(C(=O)O)cc3SC2)c(F)c1 [Example 25, 3-(2-fluoro-4-methyl-phenyl)-4-[4-[(3S)-1-(3-fluoropropyl)pyrrolidin-3-yl]oxyphenyl]-2H-thiochromene-7-carboxylic acid] | 1420 | > 4000 | > 4000 | 16 | 160 | 31 | 19 | 93 | – | – | – | – | – | –
14 | CC1(C)Cc2cc(C3=C(c4ccc(O[C@H]5CCN(CCCF)C5)cc4)c4ccc(O)cc4SC3)ccc2O1 [Example 32, 3-(2,2-dimethyl-3H-benzofuran-5-yl)-4-[4-[(3S)-1-(3-fluoropropyl)pyrrolidin-3-yl]oxyphenyl]-2H-thiochromen-7-ol] | 19 | 314 | 168 | 0.4 | 6 | 1 | 0.8 | 87 | – | – | – | – | – | –
15 | CCOc1ccc(C2=C(c3ccc(O[C@H]4CCN(CCCF)C4)cc3)c3ccc(O)cc3SC2)c(F)n1 [Example 27, 3-(6-ethoxy-2-fluoro-3-pyridyl)-4-[4-[(3S)-1-(3-fluoropropyl)pyrrolidin-3-yl]oxyphenyl]-2H-thiochromen-7-ol] | 2 | 38 | 21 | 0.4 | 6 | 2 | 0.6 | 94 | – | – | – | – | – | –
16 | Oc1ccc2c(c1)SCCC(c1ccc(OC(F)(F)F)c(F)c1)=C2c1ccc(O[C@H]2CCN(CCCF)C2)cc1 [Example 190, 5-[4-[(3S)-1-(3-fluoropropyl)pyrrolidin-3-yl]oxyphenyl]-4-[3-fluoro-4-(trifluoromethoxy)phenyl]-2,3-dihydro-1-benzothiepin-8-ol] | 39 | 638 | 425 | 0.2 | 6 | 0.8 | 0.5 | 91 | – | – | – | – | – | –
